Data: patent publication US20070128217A1 (priority 2003, published 2007)

Experiments:
[1] = system: control sera (pooled serum of ten healthy LUMC hospital workers; commercial negative donor pooled serum from the Dutch bloodbank); assay type: binding, human; parameters: Binding of Control serum LUMC to linear peptides / Binding of Control serum Blood-bank to linear peptides / Binding of Control serum LUMC to looped peptides / Binding of Control Serum Blood-Bank to Looped peptides / Binding of Control serum LUMC to linear peptides of the protein M of SARS-CoV Urbani / Binding of Control serum Blood-bank to linear peptides of the protein M of SARS-CoV Urbani / Binding of Control serum LUMC to looped peptides of the protein M of SARS-CoV Urbani / Binding of Control Serum Blood-Bank to Looped peptides of the protein M of SARS-CoV Urbani: unit not given here
[2] = system: rabbit serum obtained by immunizing a rabbit with the SARS-CoV strain Frankfurt 1; assay type: binding; parameters: Binding of a rabbit serum to linear peptides / Binding of a rabbit serum to looped peptides / Rabbit serum linear peptides / Rabbit serum looped peptides / Binding of a rabbit serum to linear peptides of protein N of SARS-CoV Urbani (Rabbit serum linear peptides) / Binding of a rabbit serum to looped/cyclic peptides of protein N of SARS-CoV Urbani (Rabbit serum looped peptides): unit not given here
[3] = system: antibodies in sera from SARS patients (sera 1a, 1b, 2, 6, 37, 62, London, SARS-yellow, SARS-green); assay type: binding, human; parameters: Binding of serum 6 to linear peptides of protein X1 of SARS-CoV Urbani / Binding of serum 37 to linear peptides of protein X1 of SARS-CoV Urbani / Binding of serum 6 to looped/cyclic peptide (PEPSCAN-ELISA) / Binding of serum 37 to looped/cyclic peptide (PEPSCAN-ELISA) / Binding of serum 37 to looped/cyclic peptides of protein X1 of SARS-CoV Urbani / Binding of serum 6 to linear peptides of protein X2 / Binding of serum 37 to linear peptides of protein X2 / Binding of serum 37 to looped/cyclic peptides of protein X2 of SARS-CoV Urbani / Binding of serum 6 to linear peptides of protein M of SARS-CoV Urbani / Binding of serum 37 to linear peptides of protein M of SARS-CoV Urbani / Binding of serum 6 to looped/cyclic peptides of protein M of SARS-CoV Urbani / Binding of serum 37 to looped/cyclic peptides of protein M of SARS-CoV Urbani / Binding of serum 6 to linear peptides of protein X3 of SARS-CoV Urbani / Binding of serum 37 to linear peptides of protein X3 of SARS-CoV Urbani / Binding of serum 37 to looped/cyclic peptides of protein X3 of SARS-CoV Urbani / Binding of serum 6 to linear peptides of protein X4 of SARS-CoV Urbani / Binding of serum 37 to linear peptides of protein X4 of SARS-CoV Urbani / Binding of serum 37 to looped/cyclic peptides of protein X4 of SARS-CoV Urbani / Binding of serum 6 to linear peptides of protein X5 of SARS-CoV Urbani / Binding of serum 37 to linear peptides of protein X5 of SARS-CoV Urbani / Binding of serum 37 to looped/cyclic peptides of protein X5 of SARS-CoV Urbani / Binding of serum 6 to linear peptides of protein N of SARS-CoV Urbani / Binding of serum 37 to linear peptides of protein N of SARS-CoV Urbani / Binding of serum 6 to linear peptide (PEPSCAN-ELISA) / Binding of serum 1a to looped/cyclic peptides of protein N of SARS-CoV Urbani / Binding of serum 1b to looped/cyclic peptides of protein N of SARS-CoV Urbani / Binding of serum 2 to looped/cyclic peptides of protein N of SARS-CoV Urbani / Binding of serum 6 to looped/cyclic peptides of protein N of SARS-CoV Urbani / Binding of serum 37 to looped/cyclic peptides of protein N of SARS-CoV Urbani / Binding of serum 62 to looped/cyclic peptides of protein N of SARS-CoV Urbani / Binding of serum London to looped/cyclic peptides of protein N of SARS-CoV Urbani / Binding of serum SARS-green to looped/cyclic peptides of protein N of SARS-CoV Urbani: unit not given here

NSVTDTIVVTEGDGI
0.5: Binding of Control serum LUMC to looped peptides [1] | Binding of a rabbit serum to looped peptides [2] | Binding of serum 1b to linear peptides of protein X1 of SARS-CoV Urbani [3] | Binding of serum 37 to linear peptides of protein X1 of SARS-CoV Urbani [3]
0.6: Binding of serum 1a to linear peptides of protein X1 of SARS-CoV Urbani [3] | Binding of serum SARS-yellow to linear peptides of protein X1 of SARS-CoV Urbani [3]
0.3: Binding of Control serum Blood-bank to linear peptides [1] | Binding of serum 1b to looped/cyclic peptides of protein X1 of SARS-CoV Urbani [3] | Binding of serum SARS-green to looped/cyclic peptides of protein X1 of SARS-CoV Urbani [3] | Binding of serum SARS-yellow to looped/cyclic peptides of protein X1 of SARS-CoV Urbani [3]
0.4: Binding of Control Serum Blood-Bank to Looped peptides [1] | Binding of Control serum LUMC to linear peptides [1] | Binding of serum 1a to looped/cyclic peptides of protein X1 of SARS-CoV Urbani [3] | Binding of serum 2 to linear peptides of protein X1 of SARS-CoV Urbani [3] | Binding of serum 6 to linear peptides of protein X1 of SARS-CoV Urbani [3] | Binding of serum 37 to looped/cyclic peptides of protein X1 of SARS-CoV Urbani [3] | Binding of serum 62 to linear peptides of protein X1 of SARS-CoV Urbani [3] | Binding of serum 62 to looped/cyclic peptides of protein X1 of SARS-CoV Urbani [3]
0.2: Binding of serum 2 to looped/cyclic peptides of protein X1 of SARS-CoV Urbani [3] | Binding of serum 6 to looped/cyclic peptides of protein X1 of SARS-CoV Urbani [3] | Binding of serum London to linear peptides of protein X1 of SARS-CoV Urbani [3] | Binding of serum London to looped/cyclic peptides of protein X1 of SARS-CoV Urbani [3] | Binding of serum SARS-green to linear peptides of protein X1 of SARS-CoV Urbani [3]
0.1: Binding of a rabbit serum to linear peptides [2]

NTRGNTYSTAWLCAL
0.2: Binding of serum 1b to looped/cyclic peptides of protein X5 of SARS-CoV Urbani [3] | Binding of serum 6 to looped/cyclic peptides of protein X5 of SARS-CoV Urbani [3]
0.9: Binding of serum 1a to linear peptides of protein X5 of SARS-CoV Urbani [3]
0.5: Binding of Control serum LUMC to looped peptides [1] | Rabbit serum looped peptides [2] | Binding of serum 37 to looped/cyclic peptides of protein X5 of SARS-CoV Urbani [3] | Binding of serum SARS-yellow to linear peptides of protein X5 of SARS-CoV Urbani [3] | Binding of serum SARS-yellow to looped/cyclic peptides of protein X5 of SARS-CoV Urbani [3]
0.8: Binding of Control serum Blood-bank to linear peptides [1] | Rabbit serum linear peptides [2]
0.4: Binding of Control Serum Blood-Bank to Looped peptides [1] | Binding of serum 1a to looped/cyclic peptides of protein X5 of SARS-CoV Urbani [3] | Binding of serum 2 to looped/cyclic peptides of protein X5 of SARS-CoV Urbani [3]
0.6: Binding of serum 1b to linear peptides of protein X5 of SARS-CoV Urbani [3] | Binding of serum 2 to linear peptides of protein X5 of SARS-CoV Urbani [3] | Binding of serum SARS-green to linear peptides of protein X5 of SARS-CoV Urbani [3]
0.1: Binding of serum London to looped/cyclic peptides of protein X5 of SARS-CoV Urbani [3]
0.3: Binding of serum SARS-green to looped/cyclic peptides of protein X5 of SARS-CoV Urbani [3]
0.7: Binding of Control serum LUMC to linear peptides [1] | Binding of serum 6 to linear peptides of protein X5 of SARS-CoV Urbani [3] | Binding of serum 37 to linear peptides of protein X5 of SARS-CoV Urbani [3] | Binding of serum 62 to linear peptides of protein X5 of SARS-CoV Urbani [3] | Binding of serum 62 to looped/cyclic peptides of protein X5 of SARS-CoV Urbani [3] | Binding of serum London to linear peptides of protein X5 of SARS-CoV Urbani [3]
